Entries after “also recorded” stand apart in the source; their conditions may differ.
Assays:
dental plaque = test: Dissolution of plaque; conditions: water-insoluble plaque vortex mixed with ionic liquid at room temperature, centrifuged at 13,000 g
Procedure: Dental plaque samples were obtained from subjects and treated with water to remove any water soluble actives. The samples were centrifuged at 13,000 g and the supernatant was collected and discarded. The remaining plaque that was insoluble in water was used to evaluate the plaque solubilizing potential of the ionic liquids.
Ionic liquids were added to the plaque sample, and the plaque sample was vortex mixed at room temperature. To ensure that the plaque was not simply suspended in the ionic liquid, the plaque containing vial with the ionic liquid was subsequently centrifuged at 13,000 g.
Plaque may form a suspension when mixed with water and that, on centrifugation, it is visible as an insoluble pellet.

[1] = test system: 3-day old biofilm of the artificial mouth consortium of bacteria (A. naeslundii, S. oralis, V. parvula, L. casei, F. nucleatum) and S. mutans; test: In vitro biofilm removal, 3-day old biofilm (protocol of Example 2); type: cell-based; conditions: 3-day old biofilm
Procedure: The 3-day old biofilm was grown on a 24 well plate using the artificial mouth consortium of bacteria (A. naeslundii, S. oralis, V. parvula, L. casei, F. nucleatum) and S. mutans. To generate the biofilm, plates were inoculated with saliva overnight to form a pellicle. The consortium of bacteria (1 mL) at an OD of ˜0.2 was added to each well. The bacterial media (Tryptic Soy Broth with 6% sucrose) was changed after 48 hours. The 3-day old biofilm was treated with the prototype formulation (500 μL) for 15 minutes on a plate shaker at 300 rpm. After incubation, the supernatant was discarded. The optical density of each well was measured and the percentage reduction in optical density relative to the control (water) was calculated to determine the effect of the prototype formulation on biofilm removal. […]
Water, untreated biofilm, commercially available mouthwash formulations with CPC (Cetyl pyridinium chloride) and a mouthwash containing five enzymes for combatting biofilm acted as […] for the experiment.

A. viscosus [2] = test: Growth inhibition of A. viscosus (optical density over time); type: cell-based
Procedure: The effects of 1-decyl-3-methylimidazolium (DMIM) chloride on bacterial growth were investigated in vitro. DMIM chloride was incorporated into a prototype mouth rinse as illustrated in Table 17. […] The growth inhibition was measured as a change in optical density over time.
The antibacterial effects of various ionic liquids were determined according to the protocol described in Example 12.

A. viscosus [3] = test: Short Interval Kill Test (SIKT); type: cell-based; conditions: 0.3, 0.6 and 1 wt % in the prototype mouth rinse
Description: SIKT determines the kill effect of a test article at a predetermined exposure time. […] The reaction was neutralized after 30 seconds by adding a neutralizing broth. The reaction mixture was further diluted and plated on MCA (Microbial Count Agar) plates for viable bacterial count.

CCn1cc[n+](C)c1.[Br-] [EMIM Br, 1-ethyl-3-methylimidazolium bromide]
plaque dissolution (size of plaque pellet, visual) (dental plaque): size of the plaque pellet is reduced | Percent Biofilm Removed ([1]; EMIM-based ionic liquids, […] in base prototype mouth rinse of Table 1): 48.6% | optical density of A. viscosus culture, 0 h (A. viscosus [2]; 10% concentration in a mouth rinse, 0 h): 0.1482 | optical density of A. viscosus culture, 4 h (A. viscosus [2]; 10% concentration in a mouth rinse, 4 h): 0.2216 | optical density of A. viscosus culture, 22 h (A. viscosus [2]; 10% concentration in a mouth rinse, 22 h): 0.7598 | optical density of A. viscosus culture, 24 h (A. viscosus [2]; 10% concentration in a mouth rinse, 24 h): 0.8533

CCCCCCCCCCn1cc[n+](C)c1.[Cl-] [DMIM Cl, 1-decyl-3-methylimidazolium chloride]
biofilm removal, comparison in words ([1]; listed as DMIM chloride): significantly more effective in removing biofilm than EMIM chloride and BMIM chloride; also recorded: most effective in removing biofilm | Percent Biofilm Removed ([1]; other ionic liquids): 57.3% | growth inhibition of A. viscosus, in words (A. viscosus [2]; formulated at 0.312 wt %): growth inhibition of A. viscosus is maintained | growth inhibition of A. viscosus, in words (A. viscosus [2]; formulated at 1 wt % in prototype mouth rinse of Table 17): greater growth inhibition of A. viscosus than a 0.075 wt % CPC mouthwash | time to kill A. viscosus (A. viscosus [3]): ≤ 30 s
